Laboratory results as given in patent US5693650A, “4-(Quinolin-2-yl-methoxy)-phenyl-acetic acid derivatives” (Bayer Aktiengesellschaft, priority 1994, dated 1997).

System: ApoB-100-associated lipoproteins
Assay: Inhibition of the release of ApoB-100-associated lipoproteins from liver cells (HepG2), immunoassay for human LDL
Type: cell-based
Conditions: release of ApoB-100-associated particles into HepG2 culture supernatant, 50% inhibition of light adsorption at 450 nm vs solvent control
Protocol: The test for detection of the inhibition of the release of ApoB-100-associated lipoproteins from liver cells was carried out in vitro with cultured liver cells, preferably with cells of the human line HepG2. These cells are grown under standard conditions in a medium for culture of eukaryotic cells, preferably in RPMI 1640, with 10% of foetal calf serum. HepG2 cells synthesize and secrete into the culture supernatant ApoB-100-associated lipoprotein particles, which in principle are built up in a similar manner to the VLDL and LDL particles which are to be found in the plasma.
These particles can be detected with an immunoassay for human LDL. This immunoassay is carried out with antibodies which have been induced against human LDL in the rabbit under standard conditions. The anti-LDL antibodies (rab-anti-LDL-ab) were purified by affinity chromatography on an immunosorbent with human LDL. These purified rab-anti-LDL-ab are adsorbed onto the surface of plastic. This adsorption is expediently carried out on the plastic surface of microtiter plates having 96 wells, preferably on MaxiSorp plates (Nunc). If ApoB-100-associated particles are present in the supernatant of HepG2 cells, these can bind to the insolubilized rab-anti-LDL-ab, and an immune complex which is bonded to the plastic surface is formed. Non-bonded proteins are removed by washing. The immune complex on the plastic surface is detected with monoclonal antibodies, which had been induced against human LDL according to standard conditions and purified. These antibodies were conjugated with the enzyme peroxidase (Boehringer, Mannheim). Peroxidase converts the colourless substrate TMB (Kirkegaard and Perry) into a coloured product in the presence of H2 O2. After acidification of the reaction mixture with H2 SO4, the specific light adsorption at 450 nm, which is a measure of the amount of ApoB-100-associated particles which had been secreted into the culture supernatant by the HepG2 cells, is determined.
The IC50 value indicates the concentration of substance at which the light adsorption is inhibited by 50% in comparison with the control (solvent control without substance).

| SMILES | IC50 |
| --- | --- |
| O=C(NC(CO)c1cccs1)C(c1ccc(OCc2ccc3ccccc3n2)cc1)C1CCCC1 (stereo not shown) [Example 53] | 250 nM |
| O=C(NC(CO)c1cccc(F)c1)C(c1ccc(OCc2ccc3ccccc3n2)cc1)C1CCCC1 (stereo not shown) [Example 15] | 500 nM |
| O=C([C@H](c1ccc(OCc2ccc3ccccc3n2)cc1)C1CCCCCC1)N(CCO)c1ccccc1 [Example 127] | 130 nM |
| O=C(NCc1ccccc1)[C@H](c1ccc(OCc2ccc3ccccc3n2)cc1)C1CCCCCC1 [Example 141] | 20 nM |
